Source: patent US8470963B2, “Multifunctional compounds for pharmaceutical purposes” (Sku Asset Management GmbH, priority 2006, dated 2013)

Key:
Her-2 (human ErbB-2) = Her-2 (human ErbB-2) (Homo sapiens, UniProt P04626); conditions: target Her-2 (human ErbB-2); Karasseva et al, 2002; read-out: Affinity (kD); cited from earlier work
FGF receptor = conditions: target FGF receptor; if multivalent; Maruta et al, 2002; read-out: Affinity (kD); cited from earlier work
hepatoma cells = assay: Hepatoma solid tumor model in strain 13 guinea pigs: tumor weight and macrophage infiltration; assay type: in vivo, guinea pig; conditions: compared to control Group 1 (PBS); for numbers of esterase-positive cells in tumors (macrophage infiltration): 1 mg per animal ip on day 5, sacrifice on day 15, non-specific esterase stain; for mean tumor weight: 1 mg per animal ip on day 5, tumors excised and weighed on day 15
Protocol: Hepatoma cells are propagated by ip (intraperitoneal) passage in weanling strain 13 male guinea pigs (NIH). Single-cell suspensions are prepared by enzymatic digestion as described. Strain 13 male guinea pigs are injected ip with a suspension of approx. 2*10^6 hepatoma cells to produce solid tumors (day 1). Animals are grouped into 4 groups (six animals each) and are given ip injections on day 5: Phosphate-buffered saline (PBS) (Group 1; control); 1 mg peptide NH2-AWYPLPP-COOH per animal (Group 2; binder only); 1 mg peptide fMLP-COOH per animal (Group 3; effector only); 1 mg compound fMLPK-(NH2-AWYPLPP)-GGGK-(NH2-AWYPLPP)-1-COOH per animal (Group 4). Animals are sacrificed on day 15 and tumors are excised and weighed. In addition macrophage infiltration of tumors is evaluated. Therefore, tumors are fixed in phosphate-buffered formalin and embedded in paraffin blocks. Sections (5 μm) are cut and stained for non-specific esterase activity. Esterase-positive cells are quantified with an image analyser (Optomax, Inc.).

[1] = system: human neuroblastoma cells WAC 2; breast cancer cells MDA-MB-435; conditions: WAC 2 neuroblastoma cells; MDA-MB-435 breast cancer cells; Askoxylakis et al; read-out: Affinity (kD); cited from earlier work
[2] = target: Glucose-regulated protein 78 (GRP78) (Homo sapiens, UniProt P11021); conditions: target GRP78; Arap et al, 2004; read-out: Affinity (kD); cited from earlier work
EGFR = EGFR (Homo sapiens, UniProt P00533); conditions: target EGFR; Li et al 2005; read-out: Affinity (kD); cited from earlier work
EGFRvIII = EGFRvIII (Homo sapiens, UniProt P00533, DELINS30-297G); conditions: target EGFRvIII; Campa et al 2002; read-out: Affinity (kD); cited from earlier work

Glucose-regulated protein 78 (GRP78), sequence (P11021 19-654, species assumed): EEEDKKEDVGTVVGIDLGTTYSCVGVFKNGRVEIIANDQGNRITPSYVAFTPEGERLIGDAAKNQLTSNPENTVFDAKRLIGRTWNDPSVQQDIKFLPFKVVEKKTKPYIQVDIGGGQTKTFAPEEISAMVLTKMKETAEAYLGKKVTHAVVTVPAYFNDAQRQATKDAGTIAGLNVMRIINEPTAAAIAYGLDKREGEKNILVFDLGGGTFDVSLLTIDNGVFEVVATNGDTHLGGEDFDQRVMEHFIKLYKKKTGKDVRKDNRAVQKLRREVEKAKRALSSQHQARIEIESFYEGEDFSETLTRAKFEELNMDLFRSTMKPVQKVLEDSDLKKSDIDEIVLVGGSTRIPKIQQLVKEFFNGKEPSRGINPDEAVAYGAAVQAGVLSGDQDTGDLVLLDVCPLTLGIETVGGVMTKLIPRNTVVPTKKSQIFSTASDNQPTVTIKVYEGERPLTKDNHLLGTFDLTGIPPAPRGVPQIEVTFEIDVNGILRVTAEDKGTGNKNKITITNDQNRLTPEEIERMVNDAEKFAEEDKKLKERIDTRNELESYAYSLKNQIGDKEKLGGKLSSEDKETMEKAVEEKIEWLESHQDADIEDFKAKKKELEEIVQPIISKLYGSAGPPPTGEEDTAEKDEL

In the case of KCCYSL, the Kd (Her-2 (human ErbB-2)) is listed as 30000 nM.

For MQLPLAT, the Kd (FGF receptor) is listed as 0.25 nM.

In the case of “NH2-AWYPLPP-COOH (H-AWYPLPP-OH) [binder]”, the “numbers of esterase-positive cells in tumors (macrophage infiltration)” value (“numbers of esterase-positive cells” for short) (hepatoma cells) is reported as “comparable to Group 1” and the mean tumor weight (hepatoma cells) is reported as “no or only marginal effect”.

In the case of VPWMEPAYQRFL, the Kd [1] is given as 600 nM.

For WDLAWMFRLPVG, the Kd [2] is given as 5 to 50 nM.

In the case of WIFPWIQL, the Kd [2] is listed as 5 to 50 nM.

For YHWYGYTPQNVI, the Kd (EGFR) is given as 22 nM and the Kd (EGFRvIII) is given as 30 nM.

For fMLP-COOH [effector], the “numbers of esterase-positive cells” value (hepatoma cells) was “slightly increased” and the mean tumor weight (hepatoma cells) was “no or only marginal effect”.

For “fMLPK-(NH2-AWYPLPP)-GGGK-(NH2-AWYPLPP)-I-COOH [compound]”, the “numbers of esterase-positive cells” value (hepatoma cells) was “significantly increased” and the mean tumor weight (hepatoma cells) was “significantly decreased”.
